Results on four compounds are retold here after patent publication US20250290117A1, “MOLECULAR PHENOTYPIC ANTIMICROBIAL SUSCEPTIBILITY TESTING” (priority 2024, published 2025).

One test has as its system pathogen of the specimen. As to the kind of experiment: Molecular phenotypic antimicrobial susceptibility test with direct PCR at various incubation timepoints (Table 7). It is filed as cell-based. On the procedure:
Detection of Molecular Phenotypic Antimicrobial Susceptibility. Disclosed herein are the methods for the detection of phenotypic antimicrobial susceptibility via molecular methods. The present invention describes how a specimen 100 with a known microbial load is incubated and then exposed to a panel of antimicrobial agents to determine sensitivity (prevention of growth) or resistance (allowance of growth) to the specific antimicrobial agents tested utilizing molecular methods. Sample Collection. Specimens 100 are collected from patients using sterile collection processes that are employed in routine clinical care. Specimens are transported to the testing facility in boric acid preservative. […] The process for pathogen isolation includes steps of harvesting the pathogen (e.g., via centrifugation), isolating pathogen DNA via a DNA isolation and/or purification kit, and performing PCR on the pathogen DNA via PCR components (e.g., primers, enzymes, buffers) as would be known to the skilled artisan. […] This aliquot is used for antimicrobial susceptibility testing if indicated based on the pathogen detection results. […] Specimens 100 with lower pathogen loads could also be utilized in the antibiotic susceptibility phase of testing with or without a longer incubation period. […] Antimicrobial solutions are prepared at known concentrations. The specific antimicrobials and their concentrations are selected based on the pathogen of interest and the described antimicrobial resistance breakpoints for that specimen pathogen and antimicrobial combination. These antimicrobials have been selected based on those commonly utilized by healthcare providers in routine clinical care for the specific type of suspected infection. The number and types of antimicrobials utilized can be customized based on the infection source, pathogen detected, patient-specific factors such as allergies or other health conditions (e.g., chronic kidney disease or concurrent medication use), or healthcare provider preferences such as antimicrobial availability or cost. The antimicrobial solutions are prepared in liquid culture media (such as Muller Hinton Broth) to achieve the desired antimicrobial concentration and are then stored at −80° C. until use. For a given specimen, each antimicrobial is tested at a single or multiple antimicrobial concentration(s) which is its established breakpoints for sensitivity. The antimicrobial solutions are prepared and plated out for each specific pathogen. […] This allows for evaluation of pathogen load when no antimicrobial is present. Specimen Exposure to Antimicrobial Agents. The 1 mL aliquot of the specimen 100 previously mixed with culture media and incubated is obtained. Using optical density measurements as a guide, the specimen 100 is diluted to 0.5 McFarland. […] Antimicrobial exposure plates are typically placed into an incubator for 12-16 hours. […] Nucleic Acid Amplification of Antimicrobial Agent Exposed Pathogens. The antimicrobial exposure plate is removed after the period of incubation. The specimen then undergoes a purification or lysis step. For example, the specimen may undergo a purification step (e.g., magnetic bead-based or other separation protocol to isolate genetic material). In another example, the specimen may undergo a cell lysis step. For example, buffer (e.g., lysis buffer) may be added and incubated in the thermal cycler for preparation for direct PCR. Next, the specimen may undergo a polymerase chain reaction (PCR) testing protocol, whereby a semi-quantitative PCR method is utilized. This may be completed either with or without a specific extraction protocol step. The pathogens can be individually targeted and detected, or a universal genetic sequence can be utilized to detect the antimicrobial susceptibility of the specimen as a whole. The control wells are utilized as a threshold for determining antimicrobial sensitivity or resistance. […] Antimicrobial Susceptibility Result Interpretation.

Another test deals with Escherichia coli. As to the kind of experiment: Traditional culture-based antimicrobial susceptibility test. It counts as cell-based. An excerpt: Table 3 illustrates the results of an example antimicrobial agent susceptibility test of the current application versus a traditional culture-based antimicrobial agent susceptibility test for multiple Escherichia coli isolates, in accordance with one or more embodiments of the disclosure. These specimens underwent extraction or DNA purification prior to PCR. As in Tables 1 and 2, the results of the test of the current application are similar to the results from the traditional test. […]
Table 8 illustrates the results of an example antimicrobial agent susceptibility test of the current application versus a traditional culture-based antimicrobial agent susceptibility test for a low level positive with <10,000 cells/mL in the original specimen. These specimens were tested with direct PCR (e.g., no extraction DNA purification step prior to PCR) after 16 hours of incubation. As in Tables 1, 2, 3, 5, and 7, the results of the test are similar to the traditional test. […]

[1] abbreviates: E. coli isolate 1189, antibiotic incubation time 4 hours.
Where [2] appears, read: E. coli isolate 1189, antibiotic incubation time 4 hours, control average Ct […].
The mark [3] stands for this setting: E. coli isolate 1189, antibiotic incubation time 6 hours.
[4] abbreviates: E. coli isolate 1189, antibiotic incubation time 6 hours, control average Ct 16.992.
The mark [5] stands for this setting: E. coli isolate 1189, antibiotic incubation time 8 hours.
Where [6] appears, read: E. coli isolate 1189, antibiotic incubation time 8 hours, control average Ct […].
Setting [7] is: E. coli isolate 1189, antibiotic incubation time 10 hours.
Setting [8] is: E. coli isolate 1189, antibiotic incubation time 10 hours, control average Ct 15.995.
The mark [9] stands for this setting: E. coli isolate 1189, antibiotic incubation time 12 hours.
[10] abbreviates: E. coli isolate 1189, antibiotic incubation time 12 hours, control average Ct 15.495.
Setting [11] is: E. coli isolate 1189, antibiotic incubation time 14 hours.
The mark [12] stands for this setting: E. coli isolate 1189, antibiotic incubation time 14 hours, control average Ct 15.826.
[13] abbreviates: E. coli isolate 1189, antibiotic incubation time 16 hours.
[14] abbreviates: E. coli isolate 1189, antibiotic incubation time 16 hours, control average Ct 14.880.

Take `CO/N=C(\C(=O)N[C@@H]1C(=O)N2C(C(=O)[O-])=C(C[N+]3(C)CCCC3)CS[C@H]12)c1csc(N)n1` [Cefepime]: the “Molecular Antimicrobial Susceptibility Result” value in the test on pathogen of the specimen (setting [1]), with pathogen of the specimen (setting [3]), with pathogen of the specimen (setting [5]), with pathogen of the specimen (setting [7]), in the test with pathogen of the specimen (setting [9]) and in the test on pathogen of the specimen (setting [11]) was “Sensitive (Antimicrobial wells with pathogen load detected below the control wells (typically >2 cycle thresholds later) may be reported as Sensitive)” each time. Moreover, in the test with pathogen of the specimen (setting [13]), the “Molecular Antimicrobial Susceptibility Result” value is reported as “Sensitive (Antimicrobial wells with pathogen load detected below the control wells (typically >2 cycle thresholds later) may be reported as Sensitive)”. Also, the “Ct at Sensitive Breakpoint” value worked out at 20.399 with pathogen of the specimen (setting [2]); 20.178 in the test with pathogen of the specimen (setting [4]); 21.204 with pathogen of the specimen (setting [6]); 21.613 with pathogen of the specimen (setting [8]); 22.447 in the test with pathogen of the specimen (setting [10]); 22.420 in the test on pathogen of the specimen (setting [12]). The “Ct at Sensitive Breakpoint” value with pathogen of the specimen (setting [14]) stood at 23.502. The “Traditional Culture Result” value in the test with Escherichia coli (E. coli isolate 4 (Table 3)) is recorded as “Resistant”; in the test with Escherichia coli (E. coli isolate 5 (Table 3)), “Sensitive”; in the test with Escherichia coli (E. coli isolate JJ1887), “Resistant”.

Take `CO[C@@]1(NC(=O)Cc2cccs2)C(=O)N2C(C(=O)O)=C(COC(N)=O)CS[C@@H]21` [Cefoxitin]: the “Molecular Antimicrobial Susceptibility Result” value in the test with pathogen of the specimen (setting [1]), with pathogen of the specimen (setting [3]), with pathogen of the specimen (setting [5]), in the test with pathogen of the specimen (setting [7]), in the test with pathogen of the specimen (setting [9]) and in the test on pathogen of the specimen (setting [11]) was “Resistant” throughout. In addition, the “Molecular Antimicrobial Susceptibility Result” value in the test on pathogen of the specimen (setting [13]) was “Resistant”. Also, the “Ct at Sensitive Breakpoint” value is given as 17.798 in the test with pathogen of the specimen (setting [2]); 15.865 in the test with pathogen of the specimen (setting [4]); 16.837 with pathogen of the specimen (setting [6]); 14.899 in the test with pathogen of the specimen (setting [8]); 15.750 in the test on pathogen of the specimen (setting [10]); 15.333 in the test on pathogen of the specimen (setting [12]). In addition, the “Ct at Sensitive Breakpoint” value with pathogen of the specimen (setting [14]) is given as 13.704. Besides, the “Traditional Culture Result” value with Escherichia coli (E. coli isolate 4 (Table 3)) and in the test with Escherichia coli (E. coli isolate 5 (Table 3)) was “Sensitive” in each case.

As to `CO/N=C(\C(=O)N[C@@H]1C(=O)N2C(C(=O)O)=C(CSc3nc(=O)c(=O)[nH]n3C)CS[C@H]12)c1csc(N)n1` [Ceftriaxone], the “Molecular Antimicrobial Susceptibility Result” value in the test with pathogen of the specimen (setting [1]), in the test with pathogen of the specimen (setting [3]), in the test with pathogen of the specimen (setting [5]), in the test with pathogen of the specimen (setting [7]), in the test on pathogen of the specimen (setting [9]) and in the test on pathogen of the specimen (setting [11]) was “Resistant” in each case. Besides, the “Molecular Antimicrobial Susceptibility Result” value in the test on pathogen of the specimen (setting [13]) is “Resistant”. The “Ct at Sensitive Breakpoint” value is 16.185 in the test with pathogen of the specimen (setting [2]); 16.838 with pathogen of the specimen (setting [4]); 17.431 with pathogen of the specimen (setting [6]); 16.347 in the test with pathogen of the specimen (setting [8]); 16.258 in the test on pathogen of the specimen (setting [10]); 14.724 with pathogen of the specimen (setting [12]). Also, the “Ct at Sensitive Breakpoint” value in the test on pathogen of the specimen (setting [14]) was determined as 15.840. Further, the “Traditional Culture Results” value with Escherichia coli (E. coli #1 - WDCM 00090 - 6.2×E3) and with Escherichia coli (E. coli #2 - WDCM 00090 - 6.2×E3) was “Sensitive” in each case. The “Traditional Culture Result” value with Escherichia coli (E. coli isolate 1 (Table 3)) is “Resistant”; with Escherichia coli (E. coli isolate 2 (Table 3)), “Resistant”; in the test with Escherichia coli (E. coli isolate 3 (Table 3)) it was “Resistant”; in the test on Escherichia coli (E. coli isolate 4 (Table 3)), “Resistant”; with Escherichia coli (E. coli isolate 5 (Table 3)) it was “Sensitive”; in the test on Escherichia coli (E. coli isolate JJ1887) it was “Resistant”.

As for `O=C(O)c1cn(C2CC2)c2cc(N3CCNCC3)c(F)cc2c1=O` [Ciprofloxacin], the “Molecular Antimicrobial Susceptibility Result” value in the test on pathogen of the specimen (setting [1]), in the test with pathogen of the specimen (setting [3]), with pathogen of the specimen (setting [5]), with pathogen of the specimen (setting [7]), in the test on pathogen of the specimen (setting [9]) and with pathogen of the specimen (setting [11]) was “Sensitive (Antimicrobial wells with pathogen load detected below the control wells (typically >2 cycle thresholds later) may be reported as Sensitive)” throughout. In addition, in the test with pathogen of the specimen (setting [13]), the “Molecular Antimicrobial Susceptibility Result” value is reported as “Sensitive (Antimicrobial wells with pathogen load detected below the control wells (typically >2 cycle thresholds later) may be reported as Sensitive)”. In addition, the “Ct at Sensitive Breakpoint” value is 27.666 in the test on pathogen of the specimen (setting [2]); 27.144 in the test on pathogen of the specimen (setting [4]); 28.104 in the test on pathogen of the specimen (setting [6]); 27.715 with pathogen of the specimen (setting [8]); 27.182 in the test with pathogen of the specimen (setting [10]); 27.128 in the test with pathogen of the specimen (setting [12]). Besides, in the test with pathogen of the specimen (setting [14]), the “Ct at Sensitive Breakpoint” value is 28.446. In addition, the “Traditional Culture Result” value was “Resistant” in the test with Escherichia coli (E. coli isolate 1 (Table 3)); “Resistant” in the test with Escherichia coli (E. coli isolate 2 (Table 3)); “Resistant” with Escherichia coli (E. coli isolate 3 (Table 3)); “Resistant” in the test on Escherichia coli (E. coli isolate 4 (Table 3)); “Sensitive” in the test on Escherichia coli (E. coli isolate 5 (Table 3)); “Resistant” in the test with Escherichia coli (E. coli isolate JJ1887).
